Results from PMC4490744, “Protective effect of a Protein Epitope Mimetic CCR10 antagonist, POL7085, in a model of allergic eosinophilic airway inflammation” (Respiratory Research, 2015).

Columns and labels:
[1] = tested on: OVA-sensitized and challenged Balb/c mice; assay: BAL total and differential cell counts, OVA model; assay type: in vivo, mouse; conditions: 24 h after last challenge, POL7085 15 mg/kg or DEX 1 mg/kg i.n. once daily 1 h before challenge, p < 0.001
Protocol: (§1) Bronchoalveolar lavage (BAL) was performed 24 h after the last OVA challenge as previously described. Mice were anaesthetized i.p. (ketamine 150 mg/kg, xylazine 10 mg/kg). A plastic cannula was inserted in the exposed trachea, and airways were washed with 0.5 mL of 0.9 % NaCl (saline) injected with a 1 mL syringe. This procedure was performed ten times. The initial concentrated supernatant of the two first lavages (2 × 0.5 mL administered, approx. 0.5 mL recovered) was collected for cytokine measurements. The remainder of the BALF was centrifuged (600 g for 5 min, 4 °C), and cell pellets pooled. After lysis of erythrocytes with distilled water followed by osmotic re-equilibration and centrifugation, the cell pellet was suspended in 500 μL of saline and total cell counted on a haemocytometer chamber (Neubauer, PRECISS®). Cells were cytocentrifuged at 700 rpm for 10 min (Cytospin 4, Thermo Fischer Scientific), and stained with Diff-Quick® (Merck) for differential cell counts performed on at least 400 cells.

[2] = tested on: OVA-sensitized and challenged Balb/c mice; assay: Colorimetric assay of lung collagen, OVA model; conditions: lung homogenate, POL7085 p < 0.05, DEX 1 mg/kg p < 0.001
[3] = tested on: OVA-sensitized and challenged Balb/c mice; assay: Plasma OVA-specific IgE by ELISA, OVA model; assay type: in vivo, mouse; conditions: D22, ELISA
Protocol: Plasma IgE levels were determined by ELISA. Microtiter plates were coated overnight at 4 °C with the capture antibody, anti-mouse IgE at 2 μg/well in carbonate buffer, pH 9.5 (BD Pharmingen, clone R35-118).

[4] = tested on: OVA-sensitized and challenged Balb/c mice; assay: Immunohistochemistry of CCR10 in the lung, OVA model; assay type: in vivo, mouse; conditions: CCR10 immunolabelling
Protocol: Sections (3 μm) of lung tissue were cut, mounted, placed in Sequenza® immunostaining with Coverplate™ (Thermo Scientific Shandon), and antigen retrieval was performed with proteinase K in Tris-EDTA buffer (pH 8; Fluka) for 35 min at 37 °C. The endogenous enzyme was blocked with Dual Endogenous Enzyme Block (Dako Cytomation) and slides were incubated overnight at 4 °C with the primary antibody 1/1000 (goat anti-mouse CCR10 antibody; Capralogics), followed by 30 min at RT with the secondary rabbit anti-goat antibody (Vector) and 30 min at RT with extravidin peroxidase (Sigma-Aldrich).

[5] = tested on: OVA-sensitized and challenged Balb/c mice; assay: Colorimetric assay of lung mucus, OVA model; assay type: in vivo, mouse
Protocol: Mucus was measured in lung homogenate by a mucus colorimetric assay: 100 μL samples were mixed with 20 μL acid mucus reagent (0.2 % periodic acid) incubated for 1 h at 37 °C, then 20 μL mucus dye reagent (pararosaniline 1 %, 10 N hydrochloric acid 1 %) was added and samples were incubated for a further 30 min at 37 °C, before optical density measurement at 555 nm.

[6] = tested on: OVA-sensitized and challenged Balb/c mice; assay: Lung tissue CCL28 by ELISA, OVA model; assay type: in vivo, mouse; conditions: POL7085 p < 0.05
Protocol: (§2) IL-5, IFN-γ (BD Pharmingen), CCL28 (R&D system) ELISA kits and Th17 Milliplex® (Millipore) were used according to the manufacturer’s instructions. For BALF recovered 24 h after the last OVA challenge, IL-5 and IFN-γ were quantified by ELISA. For lung homogenate, concentrations of IL-4, IL-5, IL-13, IL-17a and IL-17f were quantified by Milliplex® in the supernatants obtained after lung tissue was homogenised with an UltraTurax® and centrifuged at 10,000 g for 10 min at 4 °C.

[7] = tested on: OVA-sensitized and challenged Balb/c mice; assay: Airway responsiveness to methacholine, whole body barometric plethysmography; assay type: in vivo, mouse; conditions: DEX 1 mg/kg i.n., p < 0.001
Protocol: Airway responsiveness to aerosolized methacholine (MCh; Sigma-Aldrich, A2251) was measured in conscious mice on day 22 (24 h after the last OVA challenge) by whole body barometric plethysmography (Emka Technologies). Mice were acclimatized in the plethysmograph chamber for 30 min until a stable baseline was obtained, and then exposed to aerosolized saline for 30 s as a control. Mice were then challenged every 20 min with aerosolized MCh at increasing concentrations (0.05, 0.1, 0.2 and 0.3 M) for 30 s, and the enhanced pause (PenH) was recorded for 5 min and used as an index of airway obstruction.

[8] = tested on: OVA-sensitized and challenged Balb/c mice; assay: Lung histology (haematoxylin-eosin), OVA model; assay type: in vivo, mouse; conditions: POL7085 15 mg/kg or DEX 1 mg/kg i.n.
Protocol: Lung tissues were fixed in 4 % paraformaldehyde and paraffin-embedded. 6 μm sections were cut, mounted on Superfrost glass slides (Fischer Scientific) and stained with haematoxylin-eosin for light microscopy morphological analysis or periodic acid-Schiff (PAS) staining to determine the extent of mucus production. The area of epithelial cells containing the mucus were measured and expressed relative to the total bronchus perimeter.

[9] = tested on: OVA-sensitized and challenged Balb/c mice; assay: Lung CCR3 mRNA by RT-qPCR, OVA model; assay type: in vivo, mouse; conditions: 2^ΔΔCt, not significant
Protocol: All procedures were performed according to the manufacturer’s instructions. Lung tissue was homogenised in a Fastprep®, and total RNA extracted with Tri-Reagent® (1 mL/left lung; Euromedex) and purified with mini RNeasy® Kit (Qiagen). RNA pellets were suspended in nuclease-free water (DEPC). RNA concentration and quality were determined in each preparation with a Nanodrop® spectrophotometer.
Reverse transcription was performed on 10 μg/mL of total RNA by the High Capacity cDNA Archive kit® (Life Technologies™) for 10 min at 25 °C and 2 h at 37 °C, and cDNAs were stored at −80 °C until use. Quantitative PCR was performed by real-time fluorescent PCR with TaqMan® Gene Expression Assay in 96 well plate format (Life Technologies™, ABI7000) using TaqMan® Gene Expression Assay primers (Life Technologies™ for HPRT1 (Mm01545399_m1), CCR10 (Mm01292449_m1), CCL28 (Mm00445039_m1) and CCR3 (Mm00515543_s1). To analyse the low expression of CCR10, CCL28 and CCR3, a preamplification was performed with TaqMan® PreAmp Master Mix (Life Technologies™) and TaqMan® Gene Expression Assay (10 min at 95 °C followed by 14 cycles: 15 s at 95 °C and 4 min at 60 °C). Preamplified cDNAs were stored at −80 °C until use and diluted 1/20 with 1X TE buffer for use. […]

[10] = tested on: OVA-sensitized and challenged Balb/c mice; assay: BAL cytokines by ELISA, OVA model; assay type: in vivo, mouse; conditions: 24 h after last challenge
Protocol: as §1, with “Cells were cytocentrifuged at 700 rpm for 10 min (Cytospin 4, Thermo Fischer Scientific), and stained with Diff-Quick® (Merck) for differential cell counts performed on at least 400 cells.” left out
as §2

[11] = tested on: OVA-sensitized and challenged Balb/c mice; assay: Lung homogenate cytokines by Milliplex, OVA model; assay type: in vivo, mouse; conditions: POL7085 7.5 and 15 mg/kg or DEX 1 mg/kg i.n.
Protocol: as §2

C[C@@H]1C[C@H]2[C@@H]3CCC4=CC(=O)C=C[C@]4(C)[C@@]3(F)[C@@H](O)C[C@]2(C)[C@@]1(O)C(=O)CO [DEX, dexamethasone]
inhibition of BAL eosinophil recruitment [1]: 87% | inhibition of BAL lymphocyte recruitment [1]: 86% | inhibition of BAL neutrophil recruitment [1]: 90% | reduction of lung collagen levels [2]: 64% | effect on plasma OVA-specific IgE levels [3]: a slight decrease, although non significant | infiltrating inflammatory cells expressing CCR10 [4]: clearly reduced | effect on lung mucus (colorimetric assay, lung homogenate) [5]: trend towards reduction of mucus levels (ns) | effect on lung CCL28 concentration [6]: had no effect on CCL28 levels | effect on airway responses to MCh [7]: significantly decreased airway responses to MCh | effect on peribronchial and perivascular inflammatory cell infiltrates in lung [8]: substantial reduction of these cellular infiltrates | reduction of OVA-induced lung CCR3 mRNA expression [9]: 45% | effect on IL-5 level in BAL [10]: significantly decreased | effect on levels of IL-4, IL-5 and IL-13 in lung homogenate [11]: significantly decreased
